Reference: PubChem BioAssay AID1963858 (Molecular Pharmacology Branch, DTP, NCI, 2024)

Tested on: HOP-62 multicell spheroids with HUVEC/MSC, viability
Assay: Anticancer human tumor HOP-62 cell line growth inhibition [KRAS2];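 note: viability read after a week of compound exposure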;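 for viability, T/C: 100% = DMSO vehicle-treated spheroids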
Conditions: for IC50: curve of first compound; for viability, T/C: stronger effect = lower value
Summary of the method: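 Combination screen of spheroid viability in tumor-cell co-cultures with endothelial (HUVEC) and mesenchymal stem cell stroma. Each agent was tested in half-log dilutions, topping at clinical Cmax or at 10 microM without a known Cmax.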

[1] = second compound 0.1 µM, first compound 0.0316 µM
[2] = second compound 0.1 µM, first compound 0.1 µM
[3] = second compound 0.1 µM, first compound 0.316 µM
[4] = second compound 0.1 µM, first compound 1 µM
[5] = second compound 0.1 µM, first compound 3.16 µM
[6] = second compound 0.1 µM, first compound 10 µM
[7] = second compound 0.316 µM, first compound 0.0316 µM
[8] = second compound 0.316 µM, first compound 0.1 µM
[9] = second compound 0.316 µM, first compound 0.316 µM
[10] = second compound 0.316 µM, first compound 1 µM
[11] = second compound 0.316 µM, first compound 3.16 µM
[12] = second compound 0.316 µM, first compound 10 µM
[13] = second compound 1 µM, first compound 0.0316 µM
[14] = second compound 1 µM, first compound 0.1 µM
[15] = second compound 1 µM, first compound 0.316 µM
[16] = second compound 1 µM, first compound 1 µM
[17] = second compound 1 µM, first compound 3.16 µM
[18] = second compound 1 µM, first compound 10 µM
[19] = second compound 3.16 µM, first compound 0.0316 µM
[20] = second compound 3.16 µM, first compound 0.1 µM
[21] = second compound 3.16 µM, first compound 0.316 µM
[22] = second compound 3.16 µM, first compound 1 µM
[23] = second compound 3.16 µM, first compound 3.16 µM
[24] = second compound 3.16 µM, first compound 10 µM
[25] = second compound 10 µM, first compound 0.0316 µM
[26] = second compound 10 µM, first compound 0.1 µM
[27] = second compound 10 µM, first compound 0.316 µM
[28] = second compound 10 µM, first compound 1 µM
[29] = second compound 10 µM, first compound 3.16 µM
[30] = second compound 10 µM, first compound 10 µM
[31] = second compound 0.1 µM, first compound 0.00316 µM
[32] = second compound 0.1 µM, first compound 0.01 µM
[33] = second compound 0.316 µM, first compound 0.00316 µM
[34] = second compound 0.316 µM, first compound 0.01 µM
[35] = second compound 1 µM, first compound 0.00316 µM
[36] = second compound 1 µM, first compound 0.01 µM
[37] = second compound 3.16 µM, first compound 0.00316 µM
[38] = second compound 3.16 µM, first compound 0.01 µM
[39] = second compound 10 µM, first compound 0.00316 µM
[40] = second compound 10 µM, first compound 0.01 µM

Row | SMILES | IC50 (second compound 0.1 µM) [nM] | IC50 (second compound 0.316 µM) [nM] | IC50 (second compound 1 µM) [nM] | IC50 (second compound 3.16 µM) [nM] | IC50 (second compound 10 µM) [nM] | viability, T/C [1] [%] | viability, T/C [2] [%] | viability, T/C [3] [%] | viability, T/C [4] [%] | viability, T/C [7] [%] | viability, T/C [8] [%] | viability, T/C [9] [%] | viability, T/C [10] [%] | viability, T/C [13] [%] | viability, T/C [14] [%] | viability, T/C [15] [%] | viability, T/C [19] [%] | viability, T/C [20] [%] | viability, T/C [25] [%] | viability, T/C [26] [%] | other results
1 | COc1cc2nccc(Oc3ccc(NC(=O)C4(C(=O)Nc5ccc(F)cc5)CC4)cc3)c2cc1OC + CC1OCC2(CCN(c3cnc(Sc4ccnc(N)c4Cl)c(N)n3)CC2)C1N | 7770 | 2260 | 31.6 | < 31.6 | < 31.6 | 88.3 | 83 | 88 | 91.1 | 81.8 | 67.3 | 73.4 | 84.1 | 43.5 | 50.5 | 49.4 | 33.2 | 24.1 | 30.8 | 19.3 | viability, T/C [5]: 77.8%; viability, T/C [6]: 42.2%; viability, T/C [11]: 38.9%; viability, T/C [12]: 33.5%; viability, T/C [16]: 52.7%; viability, T/C [17]: 19%; viability, T/C [18]: 27.5%; viability, T/C [21]: 16.4%; viability, T/C [22]: 17%; viability, T/C [23]: 15.9%; viability, T/C [24]: 9.51%; viability, T/C [27]: 20.4%; viability, T/C [28]: 16.8%; viability, T/C [29]: 11.6%; viability, T/C [30]: 16.7%
2 | CC(C)n1nc(-c2ccc3oc(N)nc3c2)c2c(N)ncnc21 + C=CC(=O)N1CCN(c2nc(=O)n(-c3c(C)ccnc3C(C)C)c3nc(-c4c(O)cccc4F)c(F)cc23)C(C)C1 | < 0.316 | 0.36 | 0.592 | 0.671 | < 0.316 | 10.2 | 8.15 | – | – | 11.4 | 8.53 | – | – | 11 | 8.43 | – | 12.4 | 8.73 | 11.8 | 9.42 | viability, T/C (second compound 0.1 µM, first compound 0.000316 µM): 42.3%; viability, T/C (second compound 0.1 µM, first compound 0.001 µM): 33.4%; viability, T/C [31]: 19.2%; viability, T/C [32]: 15.4%; viability, T/C (second compound 0.316 µM, first compound 0.000316 µM): 51.1%; viability, T/C (second compound 0.316 µM, first compound 0.001 µM): 41%; viability, T/C [33]: 25.3%; viability, T/C [34]: 14.2%; viability, T/C (second compound 1 µM, first compound 0.000316 µM): 62.8%; viability, T/C (second compound 1 µM, first compound 0.001 µM): 38.9%; viability, T/C [35]: 25.5%; viability, T/C [36]: 15.3%; viability, T/C (second compound 3.16 µM, first compound 0.000316 µM): 60.2%; viability, T/C (second compound 3.16 µM, first compound 0.001 µM): 43.8%; viability, T/C [37]: 31.9%; viability, T/C [38]: 18.6%; viability, T/C (second compound 10 µM, first compound 0.000316 µM): 36.9%; viability, T/C (second compound 10 µM, first compound 0.001 µM): 28.8%; viability, T/C [39]: 25%; viability, T/C [40]: 16.2%
3 | CCNC(=O)CC1N=C(c2ccc(Cl)cc2)c2cc(OC)ccc2-n2c(C)nnc21 (stereo not given) + CNCc1ccccc1-c1csc(C(C)Nc2nc(C)nc3cc(OC)c(OC)cc23)c1 | 438 | 245 | 136 | < 31.6 | < 31.6 | 103 | 74.4 | 52.3 | 43.1 | 92.3 | 72 | 44.7 | 30.9 | 86 | 54.3 | 38.2 | 0.15 | 0.21 | 0.1 | 0.09 | viability, T/C [5]: 37.3%; viability, T/C [6]: 35.1%; viability, T/C [11]: 33.6%; viability, T/C [12]: 32.6%; viability, T/C [16]: 29.7%; viability, T/C [17]: 28.1%; viability, T/C [18]: 28.6%; viability, T/C [21]: 0.07%; viability, T/C [22]: 0.06%; viability, T/C [23]: 0.06%; viability, T/C [24]: 0.13%; viability, T/C [27]: 0.1%; viability, T/C [28]: 0.09%; viability, T/C [29]: 0.23%; viability, T/C [30]: 0.17%
4 | CCN1CCN(Cc2ccc(Nc3ncc(F)c(-c4cc(F)c5nc(C)n(C(C)C)c5c4)n3)nc2)CC1 + CNCc1ccccc1-c1csc(C(C)Nc2nc(C)nc3cc(OC)c(OC)cc23)c1 | > 1000 | > 1000 | 257 | < 3.16 | < 3.16 | 95.3 | 90.4 | 72.6 | 54.4 | 81.3 | 71 | 71.7 | 48.4 | 72.9 | 52.6 | 51.4 | 0.14 | 0.21 | 0.1 | 0.11 | viability, T/C [31]: 102%; viability, T/C [32]: 112%; viability, T/C [33]: 108%; viability, T/C [34]: 90.4%; viability, T/C [35]: 97%; viability, T/C [36]: 73.6%; viability, T/C [16]: 41.4%; viability, T/C [37]: 0.39%; viability, T/C [38]: 0.5%; viability, T/C [21]: 0.17%; viability, T/C [22]: 0.16%; viability, T/C [39]: 0.1%; viability, T/C [40]: 0.1%; viability, T/C [27]: 0.1%; viability, T/C [28]: 0.16%
